These results are taken from patent US8399672B2, “Compound having affinity for amyloid” (Nihon Medi-Physics Co., Ltd., priority 2007, dated 2013).

Structures are written as SMILES.

Data set [1] is described as follows: Measurement of partition coefficient based on the octanol extraction method (log Poctanol). Type of data set: physicochemical. The note with it: octanol / 10 mmol/L phosphate buffer (pH 7.4); for logD: read-out: logPoctanol value. The method, then: Partition coefficients based on the octanol extraction method (hereinafter referred to as log Poctanol) were measured, which are generally known as an indicator of permeability of compounds through the blood-brain barrier (hereinafter referred to as BBB).
Each diethyl ether solution of Compound 1 (Example 15), Compound 2 (Example 16), Compound 3 (Example 17), Compound 4 (Example 18) and [^123I]-IMPY (Comparative Example 1) was each diluted with 10 mg/mL ascorbic acid-containing physiological saline solution, and adjusted to a radioactive concentration of 20-30 MBq/mL. To 2 mL of octanol, 10 μL each of the solutions was added, and 2 mL of 10 mmol/L phosphate buffer (pH 7.4) was added, followed by stirring for 30 seconds. After each mixture was centrifuged (2000 rpm×60 min.) with a low-speed centrifuge (type: CTD4, manufactured by Hitachi Koki, Co., Ltd.), the octanol layer and the water layer were sampled each in an amount of 1 mL, and subjected to measurement of radioactivity count with an autowell gamma system (Type: ARC-301B, manufactured by Aloka). Using the obtained radioactivity count, log Poctanol was calculated in accordance with the equation (1).

Data set [2] in a line: Measurement of transferability into brain and clearance (radioactive accumulation in brain after intravenous injection). Type of data set: in vivo, male Wistar rats. Conditions: rats; for Radioactive accumulation in brain two minutes after the injection (in words): 2 min; for Radioactive accumulation per unit weight of brain, after 2 min.: 2 min after injection; for Radioactive accumulation per unit weight of brain, after 5 min.: 5 min after injection; for Radioactive accumulation per unit weight of brain, after 30 min.: 30 min after injection; for Radioactive accumulation per unit weight of brain, after 60 min.: 60 min after injection; for Clearance of radioactivity from brain (in words): up to 60 min. The protocol:
Using Compounds 1, 2 and 3, a time course change of radioactive accumulation in brain of male Wistar rats (7-week old) was measured.
Compound 1 in 10 mg/mL ascorbic acid-containing physiological saline solution (24 MBq/mL in radioactive concentration), Compound 2 in 10 mg/mL ascorbic acid-containing physiological saline solution (30 MBq/mL in radioactive concentration), Compound 4 in 10 mg/mL ascorbic acid-containing physiological saline solution (32 MBq/mL in radioactive concentration) and Compound 3 in 10 mg/mL ascorbic acid-containing physiological saline solution (30 MBq/mL in radioactive concentration) were prepared to obtain sample solutions. The sample solutions were injected under thiopental anesthesia into the tail vein of the male Wistar rats (7-week old) (dosage: 0.05 mL, dosed radioactivity: 1.2-1.5 MBq equivalent). The rats were sacrificed by bleeding from abdominal artery, and brains were removed and subjected to measurement of mass of brains and further subjected to measurement of radioactivity (hereinafter referred to as A in this Example) with a single channel analyzer (detector type: SP-20 manufactured by OHYO KOKEN KOGYO Co., Ltd.) 2, 5, 30 and 60 minutes after the injection. Further, the radioactivity level of the rest of the whole body was measured in the same manner as above (hereinafter referred to as B in this Example). Using these measurement results, radioactive accumulation per unit weight of brain (% ID/g) at the respective time points of dissection was calculated in accordance with the following formula (2) (Examples 19 to 22).
Separately, [^123I]-IMPY in 10 mg/mL ascorbic acid-containing physiological saline solution (20-30 MBq/mL in radioactive concentration) was prepared, the same operation as above was conducted, and radioactive accumulation per unit weight of brain (% ID/g) at the respective time points of dissection was calculated (Comparative Example 2).
Meanwhile, three animals were used for Examples 19 to 22 and Comparative Example 2 at the respective time points.

Data set [3] has as its target T1, amyloid in brain (aggregated Aβ1-42 injected into amygdaloid nucleus) (Homo sapiens, UniProt P05067).
T1 construct: Aβ1-42 (manufactured by Wako); purchased Wako
Nature of the data set: Confirmation of imaging of amyloid in brain (autoradiogram of brain slice after tail vein injection, Thioflavin T staining). The note with it: rat. Type of data set: in vivo, male Wistar rat. The method, then: (1) Aβ1-42 (manufactured by Wako) was dissolved in phosphate buffer (pH 7.4) and shaken at 37° C. for 72 hours, to obtain a 1 mg/mL suspension of aggregated Aβ (hereinafter referred to as amyloid suspension in the Examples).
(2) Under thiopental anesthesia, […] of the amyloid suspension was injected into an amygdaloid nucleus on one side of a male Wistar rat (7-week old). As a control, 2.5 μL of a phosphate buffered physiological saline solution (pH 7.4) was injected into an amygdaloid nucleus on the other side of the rat. The rats were examined 1 day after the injection of the amyloid suspension and the phosphate buffered physiological saline solution (pH 7.4).
(3) Compound 1 in a 10 mg/mL ascorbic acid-containing physiological saline solution (24 MBq/mL in radioactivity concentration), Compound 2 in a 10 mg/mL ascorbic acid-containing physiological saline solution (30 MBq/mL in radioactivity concentration) and Compound 4 in a 10 mg/mL ascorbic acid-containing physiological saline solution (32 MBq/mL in radioactivity concentration) were each prepared to obtain a sample solution. This sample solution was injected under thiopental anesthesia into the rat through the tail vein (dosage: 0.5 mL, dosed radioactivity: 12-15 MBq equivalent).
(4) Brain was removed 60 minutes after the injection to prepare a brain slice of 10 μm in thickness with a microtome (type: CM3050S, manufactured by LEICA). The brain slice was exposed to an imaging plate for 20 hours, and then image analysis was carried out by use of a Bio-imaging Analyzer (type: BAS-2500; manufactured by FUJIFILM Corporation).
(5) After the completion of the image analysis using the Bio-imaging Analyzer, pathological staining with Thioflavin T was carried out to perform imaging by use of a fluorescence microscope (manufactured by NIKON Corporation; type: TE2000-U model; excitation wavelength: 400-440 nm; detection wavelength: 470 nm). Thus, it was confirmed that amyloid was deposited on the slice (FIG. 10b, FIG. 11b and FIG. 12b).
The procedure was conducted in the same manner as in Example 23 except that a solution of Compound 3 in 10 mg/mL ascorbic acid-containing physiological saline solution (32 MBq/mL in radioactive concentration) was used as a sample solution, and a brain was removed 120 minutes after injection of the sample solution.

For data set [4] the following is noted: normal mice, [125I]-labeled, cited from earlier work; for Transfer into brain: 2 minutes after administration.
The conditions of data set [5]: reported in WO03/106439; cited from earlier work.
[6] abbreviates: brain removed 60 minutes after injection.

T1 sequence (P05067 672-713): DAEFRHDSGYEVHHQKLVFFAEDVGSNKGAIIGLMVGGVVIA

Turning to `Cc1cc2nc(-c3ccc(OCCO)cc3)cn2cc1[123I]` [Compound 4, 2-[4′-(2″-hydroxyethoxy)phenyl]-6-[^123I]iodo-7-methylimidazo[1,2-a]pyridine], the logD in data set [1] came to 2.7. In data set [2], the “Radioactive accumulation in brain two minutes after the injection (in words)” value (shortened to “Radioactive accumulation … (in words)”) was “significant radioactive accumulation”; the “Radioactive accumulation per unit weight of brain, after 2 min.” value is 0.80 % ID/g; the “Radioactive accumulation per unit weight of brain, after 5 min.” value is reported as 0.61 % ID/g; the “Radioactive accumulation per unit weight of brain, after 30 min.” value came out at 0.12 % ID/g. In addition, in data set [2], the “Radioactive accumulation per unit weight of brain, after 60 min.” value was 0.03 % ID/g and the “Clearance of radioactivity from brain (in words)” value (“Clearance of radioactivity” for short) is recorded as “tendency to rapidly clear away in 60 minutes”. The “Accumulation at intracerebral amyloid / capability of imaging intracerebral amyloid” value in data set [3] (setting [6]) was “property of accumulating at intracerebral amyloid”.
`CN(C)c1ccc(-c2nc3ccc(I)cc3s2)cc1` [TZDM, 6-iodo-2-[4′-(N,N-dimethylamino)phenyl]benzothiazole]: in data set [4], the Transfer into brain result is recorded as “transferred into brain” and the “Clearance from normal tissues” value is reported as “insufficient in clearance from normal tissues”.
Turning to `COc1cc(-c2cn3cc([123I])ccc3n2)ccc1OCCF` [Compound 2, 2-[4′-(2″-fluoroethoxy)-3′-methoxyphenyl]-6-[^123I]iodoimidazo[1,2-a]pyridine], the logD in data set [1] stood at 1.8. Also, in data set [2], the “Radioactive accumulation … (in words)” value is listed as “significant radioactive accumulation”; the “Radioactive accumulation per unit weight of brain, after 2 min.” value is on record as 0.42 % ID/g; the “Radioactive accumulation per unit weight of brain, after 5 min.” value amounted to 0.26 % ID/g; the “Radioactive accumulation per unit weight of brain, after 30 min.” value came out at 0.04 % ID/g. For the same compound, in data set [2], the “Radioactive accumulation per unit weight of brain, after 60 min.” value is recorded as 0.02 % ID/g and the “Clearance of radioactivity” value was “tendency to rapidly clear away in 60 minutes”. In addition, the “Accumulation at intracerebral amyloid / capability of imaging intracerebral amyloid” value in data set [3] (setting [6]) is given as “property of accumulating at intracerebral amyloid”.
For the compound `COc1ccc2nc(-c3ccc(OCCF)c([123I])c3)cn2c1` [Compound 3, 2-[4′-(2″-fluoroethoxy)-3′-[^123I]iodophenyl]-6-methoxyimidazo[1,2-a]pyridine], the logD in data set [1] was 2.6. For the same compound, in data set [2], the “Radioactive accumulation … (in words)” value was “significant radioactive accumulation”; the “Radioactive accumulation per unit weight of brain, after 2 min.” value turned out to be 0.70 % ID/g; the “Radioactive accumulation per unit weight of brain, after 5 min.” value turned out to be 0.53 % ID/g; the “Radioactive accumulation per unit weight of brain, after 30 min.” value is 0.08 % ID/g. Moreover, in data set [2], the “Radioactive accumulation per unit weight of brain, after 60 min.” value was determined as 0.03 % ID/g and the “Clearance of radioactivity” value is “tendency to rapidly clear away in 60 minutes”. In data set [3] (brain removed 120 minutes after injection), the “Accumulation at intracerebral amyloid / capability of imaging intracerebral amyloid” value is “property of accumulating at intracerebral amyloid”.
As for `CC(=C(C#N)C#N)c1ccc2cc(N(C)CCF)ccc2c1` [FDDNP, 2-(1-{6-[(2-fluoroethyl)(methyl)amino]-2-naphthyl}ethylidene)malononitrile], the “Result in reverse mutation test” value in data set [5] is “positive”.
Consider `COc1ccc2nc(-c3ccc(OCCCF)c([123I])c3)cn2c1` [Compound 1, 2-[4′-(3″-fluoropropoxy)-3′-[^123I]iodophenyl]-6-methoxyimidazo[1,2-a]pyridine], for which the logD in data set [1] was found to be 2.3. For the same compound, in data set [2], the “Radioactive accumulation … (in words)” value was “significant radioactive accumulation”; the “Radioactive accumulation per unit weight of brain, after 2 min.” value stood at 0.74 % ID/g; the “Radioactive accumulation per unit weight of brain, after 5 min.” value came to 0.53 % ID/g; the “Radioactive accumulation per unit weight of brain, after 30 min.” value was 0.11 % ID/g. Also, in data set [2], the “Radioactive accumulation per unit weight of brain, after 60 min.” value is reported as 0.03 % ID/g and the “Clearance of radioactivity” value is “tendency to rapidly clear away in 60 minutes”. The “Accumulation at intracerebral amyloid / capability of imaging intracerebral amyloid” value in data set [3] (setting [6]) is given as “property of accumulating at intracerebral amyloid”.
The compound `CN(C)c1ccc(-c2cn3cc([123I])ccc3n2)cc1` [[^123I]-IMPY, reference compound] yielded a logPoctanol value in data set [1] of 1.9. Moreover, in data set [2], the “Radioactive accumulation per unit weight of brain, after 2 min.” value worked out at 1.19 % ID/g; the “Radioactive accumulation per unit weight of brain, after 5 min.” value is listed as 0.97 % ID/g; the “Radioactive accumulation per unit weight of brain, after 30 min.” value is 0.23 % ID/g; the “Radioactive accumulation per unit weight of brain, after 60 min.” value worked out at 0.09 % ID/g.
With `CN(C)c1ccc(/C=C/c2ccc(I)cc2)cc1` [m-I-SB, (E)-4-dimethylamino-4′-iodostilbene], in data set [4], the Transfer into brain entry is “transferred into brain” and the “Clearance from normal tissues” value is on record as “insufficient in clearance from normal tissues”.
In the case of `CN(C)c1ccc(-c2nc3ccc(I)cc3o2)cc1` [IBOX, 6-iodo-2-[4′-(N,N-dimethylamino)phenyl]benzoxazole], in data set [4], the Transfer into brain result is “transferred into brain” and the “Clearance from normal tissues” value is recorded as “insufficient in clearance from normal tissues”.
